# According to patent publication US9394519B2, “Methods to produce mast cell culture” (Apollonian Biosystems Limited, priority 2011, dated 2016):
# Ends that are not written are not given here.
# Experiments:
# mast cell tryptase = test: Cell-based assay for screening tryptase inhibitors (MCP-1 degradation in medium of anti-IgE-stimulated mast cells); design: species or system human; conditions: for Inhibition of the degradation of MCP-1 in the reaction medium: 6-hour reaction medium of anti-IgE-stimulated mast cells incubated with inhibitor at 37° C. for 16 hours, FIG. 7
# Protocol: Primary human mast cells with functional phenotype of connective tissue-type mast cells were derived from peripheral blood using the protocol described in Example 1. Cells were stimulated via the high-affinity IgE receptors (FcERI) using an anti-IgE antibody and kept under various conditions (see conditions A to G below) for 6 hours and 16 hours. The supernatants were then collected and the MCP-1 level in the supernatants was determined.
# human mast cells [1] = test: Inhibition of IgE-dependent degranulation (histamine release in response to anti-IgE); assay type: cell-based; conditions: IgE-sensitized human mast cells challenged with anti-IgE; FIG. 5
# Protocol: Cultured mast cells at week 6, week 9 and week 12 were harvested, counted and seeded into 24-well plates in complete IMDM with 100 ng/ml SCF and 50 ng/ml IL-6. • IgE-dependent activation: Human mast cells were first sensitized by 0.5 μg/ml human myeloma IgE (Merck) in culture medium overnight. Unbound IgE was then removed by washing once with PBS. The cells were then resuspended in full HEPES buffer (FHB: 137 mM NaCl, 5.56 mM glucose, 12 mM HEPES, 2.7 mM KCl, 0.4 mM NaH2PO4 and 1 mM CaCl2 at pH 7.4) supplemented with 0.03% human albumin (HA) (for release of histamine and PGD2) or in IMDM with 10% FBS (for release of IL-8). […] 3.b Histamine Release Histamine released into the reaction buffer and the remaining granular histamine in the pellets were collected and analyzed by using Bran+Luebbe Autoanalyzer (AAIII Autoanalyzer, Bran+Luebbe, Germany) which chemically extracted histamine from the samples as described by Siraganian (Siraganian, R. P. 1974, Analytical Biochemistry 57(2): 383-394). […] For all stimulation studies, histamine released into the supernatant was expressed as a percentage of total cellular histamine content and all histamine release values were corrected for the spontaneous histamine release in buffer alone.
# human mast cells [2] = test: Mast cell activation: release of histamine, PGD2 and IL-8 in response to stimuli; assay type: cell-based; conditions: human mast cells generated in Example 1, cultured 6 weeks or more; FIGS. 1-4
# Protocol: To validate that the human mast cell cultures are functionally responsive, the release of histamine, prostaglandin D2 (PGD2) and interleukin-8 (IL-8) in response to stimulations by anti-IgE, aggregated IgG1, Toll-like receptor ligands, Substance P, compound 48/80 and ionophores was measured.
# Cultured mast cells at week 6, week 9 and week 12 were harvested, counted and seeded into 24-well plates in complete IMDM with 100 ng/ml SCF and 50 ng/ml IL-6. • IgE-dependent activation: Human mast cells were first sensitized by 0.5 μg/ml human myeloma IgE (Merck) in culture medium overnight. Unbound IgE was then removed by washing once with PBS. […]
# Histamine released into the reaction buffer and the remaining granular histamine in the pellets were collected and analyzed by using Bran+Luebbe Autoanalyzer (AAIII Autoanalyzer, Bran+Luebbe, Germany) which chemically extracted histamine from the samples as described by Siraganian (Siraganian, R. P. 1974, Analytical Biochemistry 57(2): 383-394). […] For all stimulation studies, histamine released into the supernatant was expressed as a percentage of total cellular histamine content and all histamine release values were corrected for the spontaneous histamine release in buffer alone. […]
compound,measurement,setting,value
NC(=O)[C@@H]1CCCN1C(=O)[C@H](CCCN=C(N)N)NC(=O)c1ccc2ccccc2c1O [APC366],MCP-1 level relative to condition A (peak MCP-1 level at the 6th hour after stimulation),"mast cell tryptase; inhibitor added at 6th hour, 16 hours at 37° C., FIG. 8",approximate the same
CC(C)C[C@H](NC(=O)[C@@H](O)[C@H](N)Cc1ccccc1)C(=O)O [Bestatin],Inhibition of the degradation of MCP-1 in the reaction medium,mast cell tryptase,not
CC(C)C[C@H](NC(=O)[C@@H](NC(=O)N[C@@H](Cc1ccccc1)C(=O)O)[C@@H]1CCN=C(N)N1)C(=O)N[C@H](C=O)Cc1ccccc1 [Chymostatin],Inhibition of the degradation of MCP-1 in the reaction medium,mast cell tryptase,not
CC(C)(C)NCC(O)c1ccc(O)c(CO)c1 (centres unmarked) [Salbutamol],Inhibition of IgE-dependent degranulation (histamine release),human mast cells [1],can be inhibited
"Substance P (RPKPQQFFGLM; ends and bridges not checked; UniProt P20366 58-68, looked up)","Release of histamine, PGD2 and IL-8 in response to stimulation",human mast cells [2],"Release of histamine, PGD2 and IL-8 was observed"
